# Species: Rattus norvegicus
# Test: DrugMatrix - Regimen: Daily Repeat
# Type: toxicity, organism-based, Sprague-Dawley
# Set-up: regimen Daily Repeat, gender Male, age 6-8 weeks
# Details: in vivo, po, route oral GAVAGE, vehicle .5 % CMC; for BASOPHIL / EOSINOPHIL / ERYTHROCYTE COUNT / HEMATOCRIT / HEMOGLOBIN / LEUKOCYTE COUNT / LYMPHOCYTE / MEAN CORPUSCULAR HEMOGLOBIN / MEAN CORPUSCULAR HEMOGLOBIN CONCENTRATION / MEAN CORPUSCULAR VOLUME / MONOCYTE / NEUTROPHIL / PLATELET COUNT: tissue Blood; for ALANINE AMINOTRANSFERASE / ALBUMIN / ALKALINE PHOSPHATASE / ASPARTATE AMINOTRANSFERASE / BLOOD UREA NITROGEN / CHLORIDE / CHOLESTEROL / CREATINE PHOSPHOKINASE / CREATININE / GLUCOSE / PHOSPHORUS / POTASSIUM / SODIUM / TOTAL BILIRUBIN / TOTAL PROTEIN: tissue Plasma
# [1] = 0 mg/kg, 72 h, dose level Control, time 3 day
# [2] = 0 mg/kg, 120 h, dose level Control, time 5 day
# [3] = 21 mg/kg, 72 h, dose level Low, time 3 day
# [4] = 21 mg/kg, 120 h, dose level Low, time 5 day
smiles,measurement,setting,value
Cc1onc(-c2ccccc2)c1-c1ccc(S(N)(=O)=O)cc1 [VALDECOXIB],BASOPHIL,[1],0.68%
same,EOSINOPHIL,[1],0.46%
same,ERYTHROCYTE COUNT,[1],7.15 x10E6/uL
same,HEMATOCRIT,[1],45.44%
same,HEMOGLOBIN,[1],14.1 G/DL
same,LEUKOCYTE COUNT,[1],9.78 x10E3/uL
same,LYMPHOCYTE,[1],84.44%
same,MEAN CORPUSCULAR HEMOGLOBIN,[1],19.72 pg
same,MEAN CORPUSCULAR HEMOGLOBIN CONCENTRATION,[1],31 G/DL
same,MEAN CORPUSCULAR VOLUME,[1],63.66 fL
same,MONOCYTE,[1],2.14%
same,NEUTROPHIL,[1],11.16%
same,PLATELET COUNT,[1],1378.2 x10E3/uL
same,ALANINE AMINOTRANSFERASE,[1],42.33 u/L
same,ALBUMIN,[1],3.8 G/DL
same,ALKALINE PHOSPHATASE,[1],388.17 u/L
same,ASPARTATE AMINOTRANSFERASE,[1],68 u/L
same,BLOOD UREA NITROGEN,[1],16.17 mg/dL
same,CHLORIDE,[1],96.67 MEQ/L
same,CHOLESTEROL,[1],71 mg/dL
same,CREATINE PHOSPHOKINASE,[1],156.17 u/L
same,CREATININE,[1],0.57 mg/dL
same,GLUCOSE,[1],193.67 mg/dL
same,PHOSPHORUS,[1],11.43 mg/dL
same,POTASSIUM,[1],7 MEQ/L
same,SODIUM,[1],140.33 MEQ/L
same,TOTAL BILIRUBIN,[1],0.48 mg/dL
same,TOTAL PROTEIN,[1],6.8 G/DL
same,BASOPHIL,[2],1.47%
same,EOSINOPHIL,[2],1%
same,ERYTHROCYTE COUNT,[2],7.12 x10E6/uL
same,HEMATOCRIT,[2],45.47%
same,HEMOGLOBIN,[2],14.1 G/DL
same,LEUKOCYTE COUNT,[2],11.38 x10E3/uL
same,LYMPHOCYTE,[2],82.57%
same,MEAN CORPUSCULAR HEMOGLOBIN,[2],19.82 pg
same,MEAN CORPUSCULAR HEMOGLOBIN CONCENTRATION,[2],31.02 G/DL
same,MEAN CORPUSCULAR VOLUME,[2],63.88 fL
same,MONOCYTE,[2],2.2%
same,NEUTROPHIL,[2],11.97%
same,PLATELET COUNT,[2],1267 x10E3/uL
same,ALANINE AMINOTRANSFERASE,[2],38 u/L
same,ALBUMIN,[2],3.72 G/DL
same,ALKALINE PHOSPHATASE,[2],391 u/L
same,ASPARTATE AMINOTRANSFERASE,[2],65.83 u/L
same,BLOOD UREA NITROGEN,[2],14.17 mg/dL
same,CHLORIDE,[2],107.67 MEQ/L
same,CHOLESTEROL,[2],61 mg/dL
same,CREATINE PHOSPHOKINASE,[2],148.33 u/L
same,CREATININE,[2],0.57 mg/dL
same,GLUCOSE,[2],177.17 mg/dL
same,PHOSPHORUS,[2],12.07 mg/dL
same,POTASSIUM,[2],7.2 MEQ/L
same,SODIUM,[2],151.5 MEQ/L
same,TOTAL BILIRUBIN,[2],0.58 mg/dL
same,TOTAL PROTEIN,[2],6.72 G/DL
same,BASOPHIL,[3],0.53%
same,EOSINOPHIL,[3],0.4%
same,ERYTHROCYTE COUNT,[3],6.91 x10E6/uL
same,HEMATOCRIT,[3],43%
same,HEMOGLOBIN,[3],13.7 G/DL
same,LEUKOCYTE COUNT,[3],11.32 x10E3/uL
same,LYMPHOCYTE,[3],84.1%
same,MEAN CORPUSCULAR HEMOGLOBIN,[3],19.8 pg
same,MEAN CORPUSCULAR HEMOGLOBIN CONCENTRATION,[3],31.87 G/DL
same,MEAN CORPUSCULAR VOLUME,[3],62.2 fL
same,MONOCYTE,[3],2.17%
same,NEUTROPHIL,[3],11.67%
same,PLATELET COUNT,[3],1322.33 x10E3/uL
same,ALANINE AMINOTRANSFERASE,[3],35 u/L
same,ALBUMIN,[3],3.63 G/DL
same,ALKALINE PHOSPHATASE,[3],309 u/L
same,ASPARTATE AMINOTRANSFERASE,[3],58.33 u/L
same,BLOOD UREA NITROGEN,[3],13 mg/dL
same,CHLORIDE,[3],95.33 MEQ/L
same,CHOLESTEROL,[3],78.33 mg/dL
same,CREATINE PHOSPHOKINASE,[3],150 u/L
same,CREATININE,[3],0.47 mg/dL
same,GLUCOSE,[3],190 mg/dL
same,PHOSPHORUS,[3],11.8 mg/dL
same,POTASSIUM,[3],6.2 MEQ/L
same,SODIUM,[3],139 MEQ/L
same,TOTAL BILIRUBIN,[3],0.2 mg/dL
same,TOTAL PROTEIN,[3],6.43 G/DL
same,BASOPHIL,[4],1.7%
same,EOSINOPHIL,[4],5.9%
same,ERYTHROCYTE COUNT,[4],7.33 x10E6/uL
same,HEMATOCRIT,[4],45.75%
same,HEMOGLOBIN,[4],14.55 G/DL
same,LEUKOCYTE COUNT,[4],9.46 x10E3/uL
same,LYMPHOCYTE,[4],42.8%
same,MEAN CORPUSCULAR HEMOGLOBIN,[4],19.85 pg
same,MEAN CORPUSCULAR HEMOGLOBIN CONCENTRATION,[4],31.85 G/DL
same,MEAN CORPUSCULAR VOLUME,[4],62.35 fL
same,MONOCYTE,[4],1.7%
same,NEUTROPHIL,[4],47.25%
same,PLATELET COUNT,[4],1408 x10E3/uL
same,ALANINE AMINOTRANSFERASE,[4],30.33 u/L
same,ALBUMIN,[4],3.67 G/DL
same,ALKALINE PHOSPHATASE,[4],296.33 u/L
same,ASPARTATE AMINOTRANSFERASE,[4],52.67 u/L
same,BLOOD UREA NITROGEN,[4],12.67 mg/dL
same,CHLORIDE,[4],104 MEQ/L
same,CHOLESTEROL,[4],61 mg/dL
same,CREATINE PHOSPHOKINASE,[4],128.67 u/L
same,CREATININE,[4],0.43 mg/dL
same,GLUCOSE,[4],196 mg/dL
same,PHOSPHORUS,[4],12.73 mg/dL
same,POTASSIUM,[4],7.17 MEQ/L
same,SODIUM,[4],149.67 MEQ/L
same,TOTAL BILIRUBIN,[4],0.43 mg/dL
same,TOTAL PROTEIN,[4],6.7 G/DL

# Source: ChEMBL document CHEMBL3885881, “DrugMatrix”
